Experimental data from ChEMBL document CHEMBL1128467, “Novel, potent, and selective 5-HT3 receptor antagonists based on the arylpiperazine skeleton: synthesis, structure, biological activity, and comparative molecular field analysis studies” (J Med Chem, 1995).

Legend:
[1] = molecular target: 5-hydroxytryptamine receptor 2C (Sus scrofa); assay: The compound was tested for their binding affinity towards 5-hydroxytryptamine 2C receptor
[2] = molecular target: T1, Serotonin 3 (5-HT3) receptor (Rattus norvegicus, UniProt P35563+Q9JJ16); assay: Binding affinity for 5-hydroxytryptamine 3 receptor from rat cortex using [3H]BRL-43694 as radioligand
T1 sequence (P35563 whole entry): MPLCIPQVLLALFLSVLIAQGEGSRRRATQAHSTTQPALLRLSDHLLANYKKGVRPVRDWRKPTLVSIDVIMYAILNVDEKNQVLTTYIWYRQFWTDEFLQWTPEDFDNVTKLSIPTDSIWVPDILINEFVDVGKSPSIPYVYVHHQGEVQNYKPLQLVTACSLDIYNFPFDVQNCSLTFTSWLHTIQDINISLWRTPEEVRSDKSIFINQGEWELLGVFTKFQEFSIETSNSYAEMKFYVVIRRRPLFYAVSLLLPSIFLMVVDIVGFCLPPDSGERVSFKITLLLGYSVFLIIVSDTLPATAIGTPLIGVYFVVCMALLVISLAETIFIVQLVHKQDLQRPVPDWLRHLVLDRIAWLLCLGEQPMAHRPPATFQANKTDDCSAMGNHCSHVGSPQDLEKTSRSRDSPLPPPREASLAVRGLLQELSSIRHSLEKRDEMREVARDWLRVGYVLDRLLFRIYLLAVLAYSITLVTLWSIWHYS
T1 sequence (Q9JJ16 whole entry): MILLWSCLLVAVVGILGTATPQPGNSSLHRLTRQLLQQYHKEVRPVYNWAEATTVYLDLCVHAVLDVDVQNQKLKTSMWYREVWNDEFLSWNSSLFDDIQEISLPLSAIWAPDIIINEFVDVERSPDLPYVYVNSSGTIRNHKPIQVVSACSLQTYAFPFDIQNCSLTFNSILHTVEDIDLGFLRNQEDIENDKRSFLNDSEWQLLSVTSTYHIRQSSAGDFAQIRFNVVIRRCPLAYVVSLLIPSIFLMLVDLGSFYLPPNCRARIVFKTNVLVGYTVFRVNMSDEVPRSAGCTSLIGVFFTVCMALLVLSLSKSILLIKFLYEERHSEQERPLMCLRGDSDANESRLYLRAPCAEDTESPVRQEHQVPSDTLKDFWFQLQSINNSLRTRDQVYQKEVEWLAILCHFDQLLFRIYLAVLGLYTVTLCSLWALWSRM

[3] = molecular target: T2, 5-hydroxytryptamine receptor 2A (Rattus norvegicus, UniProt P14842)
[4] = molecular target: T3, 5-hydroxytryptamine receptor 1B (Rattus norvegicus, UniProt P28564); assay type: tissue-based, Striatum
[5] = molecular target: T4, 5-hydroxytryptamine receptor 1A (Rattus norvegicus, UniProt P19327); assay type: tissue-based, Hippocampus
T4 sequence (P19327 whole entry): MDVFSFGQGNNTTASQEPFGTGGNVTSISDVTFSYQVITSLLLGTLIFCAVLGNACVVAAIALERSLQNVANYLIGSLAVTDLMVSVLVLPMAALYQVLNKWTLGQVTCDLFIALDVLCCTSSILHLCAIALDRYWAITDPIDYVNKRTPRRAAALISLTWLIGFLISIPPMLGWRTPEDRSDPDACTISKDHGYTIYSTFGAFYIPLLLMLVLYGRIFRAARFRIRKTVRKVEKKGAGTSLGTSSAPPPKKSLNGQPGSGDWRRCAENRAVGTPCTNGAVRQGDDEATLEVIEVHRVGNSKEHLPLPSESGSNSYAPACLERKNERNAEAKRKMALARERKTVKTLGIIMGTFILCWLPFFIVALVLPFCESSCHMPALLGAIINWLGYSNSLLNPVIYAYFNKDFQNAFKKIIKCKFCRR

[6] = system: 5-hydroxytryptamine receptor 2C (Sus scrofa)
[7] = molecular target: T5, Sodium-dependent serotonin transporter (Rattus norvegicus, UniProt P31652)
[8] = molecular target: T2, 5-hydroxytryptamine receptor 2A; assay: The compound was tested for its binding affinity towards 5-hydroxytryptamine 2A receptor from rat cortex using [3H]-ketanserin as radioligand; Nonactive at 10 uM
[9] = molecular target: T3, 5-hydroxytryptamine receptor 1B; assay: The compound was tested for their binding affinity towards 5-hydroxytryptamine 1B receptor from rat striatum using [3H]5-HT as radioligand; Nonactive at 10 uM
[10] = molecular target: T6, 5-hydroxytryptamine receptor 4 (Cavia porcellus, UniProt O70528); assay: The compound was tested for their binding affinity towards 5-hydroxytryptamine 4 receptor from guinea pig striatum using [3H]GR-113808 as radioligand.
[11] = molecular target: T3, 5-hydroxytryptamine receptor 1B; assay: The compound was tested for their binding affinity towards 5-hydroxytryptamine 1B receptor from rat striatum using [3H]5-HT as radioligand
[12] = molecular target: T6, 5-hydroxytryptamine receptor 4
[13] = molecular target: T1, Serotonin 3 (5-HT3) receptor; assay: The compound was tested for its binding affinity towards 5-hydroxytryptamine 3 receptor from rat cortex using [3H]BRL-43694 as radioligand; NA means Not active
[14] = system: 5-hydroxytryptamine receptor 2C (Sus scrofa); assay: The compound was tested for their binding affinity towards 5-hydroxytryptamine 2C receptor from pig cortex using [3H]mesulergine as radioligand; Nonactive at 10 uM
[15] = molecular target: T6, 5-hydroxytryptamine receptor 4; assay: Displacement of [3H]-GR113808 from 5-HT4 receptor of guinea pig striatum
[16] = molecular target: T3, 5-hydroxytryptamine receptor 1B; assay: The compound was tested for their binding affinity towards 5-hydroxytryptamine 1B receptor from rat striatum using [3H]5-HT as radioligand.
[17] = system: 5-hydroxytryptamine receptor 2C (Sus scrofa); assay: The compound was tested for their binding affinity towards 5-hydroxytryptamine 2C receptor using [3H]mesulergine as radioligand; Nonactive at 10 uM
[18] = molecular target: T5, Sodium-dependent serotonin transporter; assay: Effect of compound on Serotonin transporter uptake from rat cortex using [3H]citalopram as radioligand
[19] = molecular target: T6, 5-hydroxytryptamine receptor 4; assay: The compound was tested for their binding affinity towards 5-hydroxytryptamine 4 receptor from guinea pig striatum using [3H]GR-113808 as radioligand; Nonactive at 10 uM
[20] = molecular target: T1, Serotonin 3 (5-HT3) receptor; assay: The compound was tested for their binding affinity towards 5-hydroxytryptamine 3 receptor; Nonactive at 10 uM; assay type: protein-complex assay
[21] = molecular target: T2, 5-hydroxytryptamine receptor 2A; assay: The compound was tested for its binding affinity towards 5-hydroxytryptamine 2A receptor from rat cortex using [3H]ketanserin as radioligand.; Nonactive at 10 uM
[22] = molecular target: T5, Sodium-dependent serotonin transporter; assay: Effect of compound on Serotonin transporter uptake from rat cortex using [3H]citalopram as radioligand; Nonactive at 10 uM

T3 sequence (P28564 whole entry): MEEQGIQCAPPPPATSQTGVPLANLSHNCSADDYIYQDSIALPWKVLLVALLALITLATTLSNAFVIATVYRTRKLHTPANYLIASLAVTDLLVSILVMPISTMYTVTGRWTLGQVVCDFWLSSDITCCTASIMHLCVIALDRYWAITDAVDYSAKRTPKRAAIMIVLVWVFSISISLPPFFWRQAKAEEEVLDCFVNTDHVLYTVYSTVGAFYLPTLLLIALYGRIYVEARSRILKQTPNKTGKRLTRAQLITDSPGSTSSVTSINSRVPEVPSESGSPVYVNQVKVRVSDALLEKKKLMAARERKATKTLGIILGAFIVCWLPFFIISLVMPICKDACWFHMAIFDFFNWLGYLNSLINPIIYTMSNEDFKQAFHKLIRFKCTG
T5 sequence (P31652 whole entry): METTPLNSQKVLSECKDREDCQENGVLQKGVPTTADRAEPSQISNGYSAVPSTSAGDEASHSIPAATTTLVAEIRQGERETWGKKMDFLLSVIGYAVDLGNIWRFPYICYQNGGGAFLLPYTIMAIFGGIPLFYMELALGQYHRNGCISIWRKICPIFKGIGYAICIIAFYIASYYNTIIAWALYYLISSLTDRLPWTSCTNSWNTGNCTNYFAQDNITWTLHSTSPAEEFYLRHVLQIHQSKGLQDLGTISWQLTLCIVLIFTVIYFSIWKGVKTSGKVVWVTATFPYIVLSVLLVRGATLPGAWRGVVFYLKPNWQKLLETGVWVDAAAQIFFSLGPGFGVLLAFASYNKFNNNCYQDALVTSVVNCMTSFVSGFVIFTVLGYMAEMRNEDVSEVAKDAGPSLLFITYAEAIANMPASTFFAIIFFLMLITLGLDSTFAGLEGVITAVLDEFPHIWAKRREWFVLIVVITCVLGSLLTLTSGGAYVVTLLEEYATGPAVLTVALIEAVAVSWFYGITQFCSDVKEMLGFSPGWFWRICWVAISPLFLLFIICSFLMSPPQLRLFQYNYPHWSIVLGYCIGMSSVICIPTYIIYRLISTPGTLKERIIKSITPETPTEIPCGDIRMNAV
T6 sequence (O70528 whole entry): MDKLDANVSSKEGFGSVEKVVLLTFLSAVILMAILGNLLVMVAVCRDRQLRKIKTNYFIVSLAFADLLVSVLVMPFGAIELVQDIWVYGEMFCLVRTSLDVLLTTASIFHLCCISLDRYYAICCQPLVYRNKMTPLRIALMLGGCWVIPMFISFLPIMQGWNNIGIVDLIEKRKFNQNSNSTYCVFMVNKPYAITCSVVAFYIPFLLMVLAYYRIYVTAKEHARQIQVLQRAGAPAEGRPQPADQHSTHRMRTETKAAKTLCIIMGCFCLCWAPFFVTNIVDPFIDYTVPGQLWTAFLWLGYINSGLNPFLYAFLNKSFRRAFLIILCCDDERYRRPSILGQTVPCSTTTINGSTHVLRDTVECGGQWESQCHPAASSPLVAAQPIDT
T2 sequence (P14842 whole entry): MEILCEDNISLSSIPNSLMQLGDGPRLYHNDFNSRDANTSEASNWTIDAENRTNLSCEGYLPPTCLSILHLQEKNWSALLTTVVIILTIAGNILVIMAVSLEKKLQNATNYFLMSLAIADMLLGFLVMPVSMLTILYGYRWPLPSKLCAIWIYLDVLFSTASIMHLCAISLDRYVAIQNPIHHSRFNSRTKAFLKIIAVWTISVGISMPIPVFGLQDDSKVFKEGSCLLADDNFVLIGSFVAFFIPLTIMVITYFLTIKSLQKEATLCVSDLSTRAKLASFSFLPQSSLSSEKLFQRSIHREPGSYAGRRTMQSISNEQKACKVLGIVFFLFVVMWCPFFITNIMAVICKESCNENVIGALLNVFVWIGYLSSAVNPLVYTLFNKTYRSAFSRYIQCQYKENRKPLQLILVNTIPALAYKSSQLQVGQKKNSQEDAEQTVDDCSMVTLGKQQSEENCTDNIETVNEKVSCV

Structure (SMILES)	Ki [2] [nM]	Ki ([3]; read-out: Ki) [nM]	Ki [4]	Ki [5]	Ki [6]	Ki [7]	also measured
COc1cc2c(N3CCN(C)CC3)nc3ccccc3c2c2ccccc12	41.6	240	Not Active	–	–	–	Ki [1]: 2300 nM
CCN1CCN(c2nc3ccccc3c3c2ccc2ccccc23)CC1	16.4	640	Not Active	Not Active	Not Active	Not Active	–
CCN1CCN(c2nc3ccccc3c3c2cc(OC)c2ccccc23)CC1	220	690	Not Active	–	Not Active	–	–
CCN1CCN(c2nc3ccccc3c3c2CCOc2ccccc2-3)CC1	–	–	–	Not Active	–	–	Ki [8]: Not Active; Ki [9]: Not Active
CN1CCN(c2nc3ccccc3c3c2oc2ccccc23)CC1	12.5	450	Not Active	Not Active	Not Active	Not Active	Ki ([10]; read-out: Ki): 6900 nM
COc1cc2c(N3CCNCC3)nc3ccccc3c2c2ccccc12	66.5	1100	Not Active	Not Active	Not Active	Not Active	–
CN(C)CCSc1nc2ccccc2c2c1CCOc1ccccc1-2	45.9	2800	–	Not Active	Not Active	Not Active	Ki [11]: 1300 nM
CN1CCN(c2nc3ccccc3c3c2COc2ccccc2-3)CC1	1.6	1400	Not Active	Not Active	Not Active	Not Active	Ki [12]: Not Active
COc1cc2c(SCCN(C)C)nc3ccccc3c2c2ccccc12	–	–	Not Active	Not Active	Not Active	Not Active	Ki [3]: Not Active; Ki [13]: Not Active
CN1CCN(c2nc3ccccc3c3c2ccc2ccccc23)CC1	9.5	920	Not Active	Not Active	–	Not Active	Ki [14]: Not Active; Ki [10]: Not Active
CN1CCN(c2nc3ccccc3c3c2CCc2ccccc2-3)CC1	3.5	400	–	Not Active	–	Not Active	Ki [1]: 7200 nM; Ki [15]: 6600 nM; Ki [9]: Not Active
c1ccc2c(c1)nc(N1CCNCC1)c1oc3ccccc3c12	32.5	1200	–	Not Active	–	Not Active	Ki [16]: 280 nM; Ki [17]: Not Active
c1ccc2c(c1)OCCc1c(N3CCNCC3)nc3ccccc3c1-2	–	3200	–	Not Active	–	–	Ki [18]: 330 nM; Ki [11]: 420 nM
c1ccc2c(c1)ccc1c(N3CCNCC3)nc3ccccc3c12	130	1100	Not Active	Not Active	Not Active	Not Active	–
CCN1CCN(c2nc3ccccc3c3c2COc2ccccc2-3)CC1	53.3	1100	Not Active	Not Active	Not Active	Not Active	–
CN1CCN(c2nc3ccccc3c3c2CCOc2ccccc2-3)CC1	–	2400	Not Active	Not Active	–	–	Ki [19]: Not Active
c1ccc2c(c1)CCc1c(N3CCNCC3)nc3ccccc3c1-2	5.4	640	Not Active	Not Active	Not Active	–	Ki [18]: 2600 nM
CN(C)CCSc1nc2ccccc2c2c1ccc1ccccc12	–	2400	Not Active	Not Active	Not Active	Not Active	Ki [20]: Not Active
CN(C)CCSc1nc2ccccc2c2c1COc1ccccc1-2	–	1800	Not Active	Not Active	Not Active	Not Active	Ki [20]: Not Active
CN(C)CCSc1nc2ccccc2c2c1CCc1ccccc1-2	–	930	–	Not Active	Not Active	–	Ki [9]: Not Active; Ki [20]: Not Active
CN(C)CCSc1nc2ccccc2c2c1oc1ccccc12	410	–	Not Active	Not Active	Not Active	Not Active	Ki [21]: Not Active
CCN1CCN(c2nc3ccccc3c3c2oc2ccccc23)CC1	52.2	530	Not Active	Not Active	Not Active	–	Ki [22]: Not Active
CCN1CCN(c2nc3ccccc3c3c2CCc2ccccc2-3)CC1	8	600	Not Active	Not Active	Not Active	Not Active	–
c1ccc2c(c1)OCc1c(N3CCNCC3)nc3ccccc3c1-2	11.5	2800	Not Active	Not Active	Not Active	–	Ki [18]: 360 nM
c1ccc2c(CCC3CCNCC3)c[nH]c2c1 [INDALPINE]	–	–	–	–	–	–	Ki [18]: 2 nM
c1ccc2nc(N3CCNCC3)ccc2c1 [QUIPAZINE]	1.2	130	–	–	–	–	Ki [18]: 43 nM; Ki [11]: 208 nM; Ki [12]: Not Active
